“Also recorded” adds a separate entry of the source.
Legend:
PPO = test: L-DOPA leaf disc assay: black discolouration (melanin) at wound surface; assay type: cell-based, lettuce
Protocol: In addition to assays which address wound-induced discolouration in a broad sense, the method according to this invention also allows to screen in a more specific manner for mutants which have a reduced PPO activity. A phenotypic assay which is indicative for PPO activity was developed by using leaf discs which were incubated in the presence of 1.5 mM L-DOPA. […] Furthermore, it was shown that the reaction can be inhibited by adding 1 mM L-cysteine during the reaction (FIG. 5). Therefore, this assay enabled the identification of mutants which are modified in the ability to mount a PPO activity at a wound surface of a leaf. The response of lettuce leaf discs to the presence of L-DOPA can be observed both in solution as well as between wetted filter papers as shown in FIG. 13.

seeds of eggplant = test: L-DOPA assay on seeds
Protocol: (§1) Seeds of lettuce and eggplant were incubated with 0, 2.5 and 5 mM L-DOPA. […] The response is PPO-dependent because it can be inhibited with L-cysteine.

seeds of lettuce = test: L-DOPA assay on seeds
Protocol: as §1

[1] = tested on: germinated seeds of lettuce; test: L-DOPA assay on germinated seeds
Protocol: Germinated seeds of lettuce were incubated with L-DOPA. […] This colour reaction can be used for screening seeds that show a reduced discolouration.

lettuce leaf discs = test: leaf disc pinking assay: wound-induced pink discolouration between wetted filter papers; assay type: cell-based; conditions: for effect on formation of the pink dye (pinking response): applied during the reaction; for concentration at which the pink discolouration was completely inhibited: applied during the assay, 5° C. for 7 days
Protocol: A phenotypic assay was developed in which leaf discolouration of lettuce induced by wounding can readily be assessed. This approach allows young plant screening for discolouration. Leaf discs of 5 mm diameter were taken from young or mature plants and placed between wetted filter papers in a tray. The system was incubated at 5° C. for 7 days. During the incubation a pink dye developed at the wound site of the leaf disc which became clearly visible as a printed circle on the filter paper (FIG. 2).

lettuce seeds = test: catechol assay on seeds
Protocol: Lettuce seeds were incubated with 0, 100, 250, 500, 750 and 1000 mg/L catechol.

[2] = tested on: field-grown lettuce plant showing severe pinking symptoms; test: pinking of leaf discs from field-grown lettuce; conditions: 1 mM, approximately 30 minutes at room temperature
Protocol: This is typically observed when plants have been stressed, for example by conditions of severe water logging. The leaf was used to prepare leaf discs which were incubated immediately by 1 mM L-cysteine.

[3] = tested on: lettuce outer leaf midrib tissue discs; test: midrib disc / cut leaf browning assay; assay type: cell-based
Protocol: A further embodiment of this invention is based on the following experiment. Parts of a lettuce leaf of a head are produced by cutting and incubated at 16° C. in air. As a response the wound surface turns brown after approximately 4 days. Especially at the wound surface of the main vein the browning can clearly be observed. Furthermore, the browning reaction can also be observed at the whole plant level upon damaging leaves by cutting or abrasion. Lettuce plants were grown to maturity and parts of outer leaves were taken by cutting discs from the rib tissue. The discs were incubated on wetted filter paper at 16° C. After approximately 72 hours, the wound surface had turned brown.

leaf discs of lettuce = test: chlorogenic acid assay on leaf discs; assay type: cell-based
Protocol: Leaf discs of lettuce were incubated with 10 mM chlorogenic acid on filter paper.

[4] = treatment of the formed pink dye after the wound response was completed; parameters: species or system lettuce; conditions: added after the wound response was completed; 0-10 mM series for L-cysteine
Protocol: (§2) As L-cysteine is known to react with o-quinones, which are PPO products, by converting them back into colourless diphenols, the effects of L-cysteine on the pink dye coming from lettuce leaf discs was determined. In parallel the effect of L-cysteine was determined on the melanin formation upon incubation with L-DOPA. Leaf discs were taken and incubated according to the procedures described above. After the wound response was completed, a concentration series of L-cysteine was added to the leaf disc and the change in colour was monitored.

[5] = treatment of melanin formed in the L-DOPA assay after the response was completed; parameters: species or system lettuce; conditions: added after the response was completed; 0-10 mM series
Protocol: as §2

With `N[C@@H](Cc1ccc(O)c(O)c1)C(=O)O` [L-DOPA, L-3,4-dihydroxyphenylalanine] the “discolouration at the wound surface on incubation with the substrate” value (PPO; 1.5 mM L-DOPA) was “dark brown to black discolouration”, the “colour reaction of seeds with the substrate” value (seeds of eggplant; 0, 2.5 and 5 mM) was “concentration dependent” and the “colour reaction of seeds with the substrate” value (seeds of lettuce; 0, 2.5 and 5 mM) was “concentration dependent”. For the same compound, the “colour reaction of seed coat and root zone with the substrate” value [1] was “show a colour reaction”.
With `C[C@H](N)C(=O)O` [L-alanine] the “effect on formation of the pink dye (pinking response)” value (“effect on formation of the pink dye” for short) (lettuce leaf discs) was “did not show any effect”.
With `N[C@@H](CS)C(=O)O` [L-cysteine] the “effect on catechol colour response of seeds” value (lettuce seeds) was “inhibited”, the “effect on black L-DOPA discolouration” value (PPO; applied simultaneously with L-DOPA) was “completely inhibited” and the “effect on pink discolouration of field-grown leaf material” value [2] was “pink discolouration disappeared; also recorded: eliminated”. For the same compound, the “effect on L-DOPA colour response of seeds” value (seeds of eggplant) was “inhibited”, the “effect on L-DOPA colour response of seeds” value (seeds of lettuce) was “inhibited” and the “effect on browning response of midrib discs” value ([3]; 10 mM, 16° C., approximately 72 hours) was “inhibited”. For the same compound, the “effect on wound-induced browning reactions (cut leaf parts, whole plant)” value ([3]; 16° C. in air, concentration not given) was “completely be inhibited”, the “effect on chlorogenic acid induced colour” value (leaf discs of lettuce; added to discs incubated with 10 mM chlorogenic acid) was “the colour disappeared again” and the “concentration at which the pink discolouration was completely inhibited” value (lettuce leaf discs) was no less than 0.001%. The “effect on formation of the pink dye” value (lettuce leaf discs) was “strongly suppressed”, the “effect on the already formed pink dye” value [4] was “converting the pink dye back into a colourless compound; also recorded: converted into a colourless compound” and the “effect on already formed black melanin” value [5] was “not affected”.
For `CC(C)C[C@H](N)C(=O)O` [L-leucine], the “effect on formation of the pink dye” value (lettuce leaf discs) was “did not show any effect”.
For `O=C1O[C@H]([C@@H](O)CO)C(O)=C1O` [ascorbic acid], the “effect on the already formed pink dye” value [4] was “convert the pink dye into a colourless compound”.
With `Oc1ccccc1O` [catechol] the “colour response of seeds with the substrate” value (lettuce seeds; 0, 100, 250, 500, 750 and 1000 mg/L) was “concentration dependent colour response”.
With `O=C(/C=C/c1ccc(O)c(O)c1)O[C@@H]1C[C@](O)(C(=O)O)C[C@@H](O)[C@H]1O` [chlorogenic acid] the “discolouration of discs on incubation with the substrate” value (leaf discs of lettuce; 10 mM on filter paper) was “browning”.
For `O=CC=Cc1ccccc1` [cinnamaldehyde], the “concentration at which the pink discolouration was completely inhibited” value (lettuce leaf discs) was no less than 0.01% and the “effect on formation of the pink dye” value (lettuce leaf discs) was “inhibited”.
In the case of `N[C@@H](CCC(=O)N[C@@H](CS)C(=O)NCC(=O)O)C(=O)O` [glutathion], the “effect on the already formed pink dye” value [4] was “convert the pink dye into a colourless compound”.
